Test results taken from patent publication US20250261636A1, “QUATERNARY AMMONIUM SANITIZING COMPOSITION” (ECOLAB USA INC., priority 2020, published 2025).
“And” between values parts separate entries of the source, which are not always exact repeats. Identical values can stand only once.

How the values were obtained:
[1] = tested on: Escherichia coli ATCC 11229; experiment: AOAC Method 960.09 Germicidal and Detergent Sanitizing Action of Disinfectants, food contact sanitizing suspension test; type: cell-based; settings: for Log Reduction: per replicate
Description: (§1) The microbial efficacy of the multipurpose sanitizing composition was evaluated for food contact applications. The purpose of the testing is to determine the efficacy of compositions used for sanitizing food contact surfaces, which in the evaluations were pre-cleaned, non-porous surfaces using AOAC Method 960.09 Germicidal and Detergent Sanitizing Action of Disinfectants. […] The test organisms included Staphylococcus aureus ATCC 6538 and Escherichia coli ATCC 11229.
(§2) The pH was adjusted by use of a polycarboxylic acid (unless otherwise noted, such as the polycarboxylate citrate tested at pH 8). In this screening test pH 9, 8, 7, 5, 4, and 3 were tested. “NT” indicates a condition was “Not Tested.”

[2] = tested on: Staphylococcus aureus ATCC 6538; experiment: as above; type: cell-based; settings: 30 ppm, pH 5, 120° F.
Description: as §1, §2

[3] = 30 ppm, pH 5, 120° F., listed as Stepan Quat

CCCCCCCC[N+](C)(C)CCCCCCCC.[Cl-] [Bardac LF, dioctyl dimethyl ammonium chloride]
Average Log Reduction ([1]; 30 ppm, pH 5, 120° F.): 3.06 log | CFU - Dilution 1E−01 ([1]; 30 ppm, pH 5, 120° F.): TNTC | CFU - Dilution 1E−02 ([1]; 30 ppm, pH 5, 120° F.): TNTC | CFU/mL ([1]; 30 ppm, pH 5, 120° F.): 3.0E+04 CFU/mL | Log ([1]; 30 ppm, pH 5, 120° F.): 4.48 | Log Reduction ([1]; 30 ppm, pH 5, 120° F.): 3.06 log | Average Log Reduction ([1]; 30 ppm, pH 7, 120° F.): 3.06 log | log reduction E. coli (ATCC 11229) ([1]; 60 ppm, pH 5, 120° F.): 3.06 log | log reduction E. coli (ATCC 11229) ([1]; 60 ppm, pH 7, 120° F.): 3.06 log | log reduction E. coli (ATCC 11229) ([1]; 90 ppm, pH 5, 120° F.): 3.06 log | log reduction E. coli (ATCC 11229) ([1]; 90 ppm, pH 7, 120° F.): 3.06 log

CCCCCCCCCC[N+](C)(C)CCCCCCCCCC.[Cl-] [Bardac 2250, didecyl dimethyl ammonium chloride]
Average Log Reduction ([1]; 30 ppm, pH 5, 120° F.): 6.83 log | Average Log Reduction ([1]; 30 ppm, pH 7, 120° F.): 3.33 log | CFU - Dilution 1E−01 ([1]; 30 ppm, pH 7, 120° F.): TNTC | CFU - Dilution 1E−02 ([1]; 30 ppm, pH 7, 120° F.): TNTC | CFU/mL ([1]; 30 ppm, pH 7, 120° F.): 3.00E+04 CFU/mL | Log Reduction ([1]; 30 ppm, pH 7, 120° F.): 3.33 log | Average Log Reduction ([1]; 30 ppm, pH 9, 120° F.): 3.33 log | CFU - Dilution 1E−01 ([1]; 30 ppm, pH 9, 120° F.): TNTC | CFU - Dilution 1E−02 ([1]; 30 ppm, pH 9, 120° F.): TNTC | CFU/mL ([1]; 30 ppm, pH 9, 120° F.): 3.00E+04 CFU/mL | Log ([1]; 30 ppm, pH 9, 120° F.): 4.48 | Log Reduction ([1]; 30 ppm, pH 9, 120° F.): 3.33 log | Average Log Reduction ([1]; 40 ppm, pH 7, 120° F.): 5.02 log | Average Log Reduction ([1]; 40 ppm, pH 9, 120° F.): 4.63 log | CFU - Dilution 1E−01 ([1]; 40 ppm, pH 9, 120° F.): 192 CFU and 120 CFU | CFU - Dilution 1E−02 ([1]; 40 ppm, pH 9, 120° F.): 12 CFU and 14 CFU | CFU/mL ([1]; 40 ppm, pH 9, 120° F.): 1.85E+03 CFU/mL and 1.22E+03 CFU/mL | Log ([1]; 40 ppm, pH 9, 120° F.): 3.27 and 3.09 | Log Reduction ([1]; 40 ppm, pH 9, 120° F.): 4.54 log and 4.72 log | log reduction E. coli (ATCC 11229) ([1]; 50 ppm, pH 7, 120° F.): 6.71 log | log reduction S. aureus (ATCC 6538) [2]: 6.88 log

didecyl dimethyl ammonium methyl sulfonate/sulfate [Quat]
Average Log Reduction ([1]; 30 ppm, pH 5, 120° F.): 4.93 log | Log Reduction [1, 3]: 4.85 log and 5.02 log | CFU - Dilution 1E−01 [1, 3]: 63 CFU and 46 CFU | CFU/mL [1, 3]: 6.8E+02 CFU/mL and 4.6E+02 CFU/mL | Log [1, 3]: 2.83 and 2.67 | log reduction S. aureus (ATCC 6538) [2]: 6.69 log
